Assays:
Format in all cases: in vivo
kochia (Bassia scoparia) [1] = test: Test C preemergence, visual plant response rating
Procedure, shortened: (§1)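 Seeds sown in a loam–sand blend got a directed preemergence soil spray; postemergence plants (2–10 cm, one- to two-leaf stage) were sprayed with compound in a non-phytotoxic solvent plus surfactant. Injury was scored visually against untreated controls after about 10 d in a greenhouse on a 0–100 scale (100 = complete control).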

[2] = test system: foxtail, giant (giant foxtail, Setaria faberi); test: Test C preemergence, visual plant response rating
Procedure, shortened: as §1

[3] = test system: barnyardgrass (Echinochloa crus-galli); test: Test C preemergence, visual plant response rating
Procedure, shortened: as §1

[4] = test system: pigweed (Amaranthus retroflexus); test: Test C preemergence, visual plant response rating
Procedure, shortened: as §1

[5] = test system: ragweed (common ragweed, Ambrosia artemisiifolia); test: Test C preemergence, visual plant response rating
Procedure, shortened: as §1

[6] = test system: Italian ryegrass (Lolium mutiflorum); test: Test C preemergence, visual plant response rating
Procedure, shortened: as §1

kochia (Bassia scoparia) [7] = test: Test C postemergence, visual plant response rating
Procedure, shortened: as §1

[8] = test system: blackgrass (Alopecurus myosuroides); test: Test C postemergence, visual plant response rating
Procedure, shortened: as §1

corn (Zea mays) = test: Test C postemergence, visual plant response rating
Procedure, shortened: as §1

[9] = test system: foxtail, giant (giant foxtail, Setaria faberi); test: Test C postemergence, visual plant response rating
Procedure, shortened: as §1

[10] = test system: galium (catchweed bedstraw, Galium aparine); test: Test C postemergence, visual plant response rating
Procedure, shortened: as §1

[11] = test system: barnyardgrass (Echinochloa crus-galli); test: Test C postemergence, visual plant response rating
Procedure, shortened: as §1

[12] = test system: pigweed (Amaranthus retroflexus); test: Test C postemergence, visual plant response rating
Procedure, shortened: as §1

[13] = test system: ragweed (common ragweed, Ambrosia artemisiifolia); test: Test C postemergence, visual plant response rating
Procedure, shortened: as §1

[14] = test system: wheat (Triticum aestivum); test: Test C postemergence, visual plant response rating
Procedure, shortened: as §1

[15] = test system: Italian ryegrass (Lolium mutiflorum); test: Test C postemergence, visual plant response rating
Procedure, shortened: as §1

[16] = test system: duck salad (Heteranthera limosa); test: Test D flooded paddy test, visual plant response rating; settings: 250 g ai/ha, scale 0 to 100 (0 no effect, 100 complete control), 13 to 15 d
Procedure, shortened: (§2)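 Greenhouse paddy assay scored on a 0–100 visual scale after 13 to 15 d, where 100 means complete control and a dash marks no result; dosing was into 3 cm floodwater over 2-leaf plants.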

[17] = test system: sedge umbrella (small-flower umbrella sedge, Cyperus difformis); test: as above; settings: 250 g ai/ha, scale 0 to 100 (0 no effect, 100 complete control), 13 to 15 d
Procedure, shortened: as §2

[18] = test system: barnyardgrass (Echinochloa crus-galli); test: as above; settings: 250 g ai/ha, scale 0 to 100 (0 no effect, 100 complete control), 13 to 15 d
Procedure, shortened: as §2

rice (Oryza sativa) = test: as above; settings: 250 g ai/ha, scale 0 to 100 (0 no effect, 100 complete control), 13 to 15 d
Procedure, shortened: as §2

[19] = Test C, 31 g ai/ha, 0 is no effect, 100 is complete control
[20] = Test C, 125 g ai/ha, 0 is no effect, 100 is complete control
[21] = Test C, postemergence, 125 g ai/ha

| Structure (SMILES) | Kochia plant response rating (0 to 100 scale) (kochia (Bassia scoparia) [1]; [19]) | Foxtail, Giant plant response rating (0 to 100 scale) [2, 19] | Barnyardgrass plant response rating (0 to 100 scale) [3, 19] | Pigweed plant response rating (0 to 100 scale) [4, 19] | Ragweed plant response rating (0 to 100 scale) [5, 19] | Ryegrass, Italian plant response rating (0 to 100 scale) [6, 19] | Kochia plant response rating (0 to 100 scale) (kochia (Bassia scoparia) [7]; Postemergence, 31 g ai/ha) | Kochia plant response rating (0 to 100 scale) (kochia (Bassia scoparia) [7]; [21]) | Blackgrass plant response rating (0 to 100 scale) ([8]; Postemergence, 31 g ai/ha) | Blackgrass plant response rating (0 to 100 scale) [8, 21] | Corn plant response rating (0 to 100 scale) (corn (Zea mays); Postemergence, 31 g ai/ha) | Corn plant response rating (0 to 100 scale) (corn (Zea mays); [21]) | Foxtail, Giant plant response rating (0 to 100 scale) ([9]; Postemergence, 31 g ai/ha) | Foxtail, Giant plant response rating (0 to 100 scale) [9, 21] | Galium plant response rating (0 to 100 scale) ([10]; Postemergence, 31 g ai/ha) | Galium plant response rating (0 to 100 scale) [10, 21] | Barnyardgrass plant response rating (0 to 100 scale) ([11]; Postemergence, 31 g ai/ha) | Barnyardgrass plant response rating (0 to 100 scale) [11, 21] | Pigweed plant response rating (0 to 100 scale) ([12]; Postemergence, 31 g ai/ha) | Pigweed plant response rating (0 to 100 scale) [12, 21] | other results |
| --- | --- | --- | --- | --- | --- | --- | --- | --- | --- | --- | --- | --- | --- | --- | --- | --- | --- | --- | --- | --- | --- |
| CO/N=C(/c1cc(Cl)c(F)c(Cl)c1)c1c(O)c(C)nn(C)c1=O [Compound 289] | 0 | 0 | 0 | 0 | 0 | 0 | 20 | 40 | 0 | 0 | 0 | 0 | 0 | 0 | 70 | 100 | 0 | 10 | 0 | 0 | Kochia plant response rating (0 to 100 scale) (kochia (Bassia scoparia) [1]; [20]): 0; Foxtail, Giant plant response rating (0 to 100 scale) [2, 20]: 10; Barnyardgrass plant response rating (0 to 100 scale) [3, 20]: 0; Pigweed plant response rating (0 to 100 scale) [4, 20]: 40; Ragweed plant response rating (0 to 100 scale) [5, 20]: 30; Ryegrass, Italian plant response rating (0 to 100 scale) [6, 20]: 30; Ragweed plant response rating (0 to 100 scale) ([13]; Postemergence, 31 g ai/ha): 40; Ragweed plant response rating (0 to 100 scale) [13, 21]: 90; Wheat plant response rating (0 to 100 scale) ([14]; Postemergence, 31 g ai/ha): 0; Wheat plant response rating (0 to 100 scale) [14, 21]: 0; Ryegrass, Italian plant response rating (0 to 100 scale) ([15]; Postemergence, 31 g ai/ha): 0; Ryegrass, Italian plant response rating (0 to 100 scale) [15, 21]: 60; Plant response rating, Ducksalad (Flood) [16]: 0; Plant response rating, Sedge, Umbrella (Flood) [17]: 0; Plant response rating, Barnyardgrass (Flood) [18]: 0; Plant response rating, Rice (Flood) (rice (Oryza sativa)): 0 |
| CON=C(c1cc(Cl)cc(F)c1Cl)c1c(O)c(C)nn(C)c1=O [Compound 271] | 20 | 40 | 30 | 100 | 30 | 80 | 60 | 80 | 20 | 40 | 10 | 30 | 70 | 80 | 100 | 100 | 40 | 80 | 80 | 90 | Kochia plant response rating (0 to 100 scale) (kochia (Bassia scoparia) [1]; [20]): 100; Foxtail, Giant plant response rating (0 to 100 scale) [2, 20]: 80; Barnyardgrass plant response rating (0 to 100 scale) [3, 20]: 50; Pigweed plant response rating (0 to 100 scale) [4, 20]: 100; Ragweed plant response rating (0 to 100 scale) [5, 20]: 80; Ryegrass, Italian plant response rating (0 to 100 scale) [6, 20]: 100; Ragweed plant response rating (0 to 100 scale) ([13]; Postemergence, 31 g ai/ha): 70; Ragweed plant response rating (0 to 100 scale) [13, 21]: 90; Wheat plant response rating (0 to 100 scale) ([14]; Postemergence, 31 g ai/ha): 30; Wheat plant response rating (0 to 100 scale) [14, 21]: 70; Ryegrass, Italian plant response rating (0 to 100 scale) ([15]; Postemergence, 31 g ai/ha): 80; Ryegrass, Italian plant response rating (0 to 100 scale) [15, 21]: 100; Plant response rating, Ducksalad (Flood) [16]: 0; Plant response rating, Sedge, Umbrella (Flood) [17]: 0; Plant response rating, Barnyardgrass (Flood) [18]: 0; Plant response rating, Rice (Flood) (rice (Oryza sativa)): 0 |
| CO/N=C(/c1cccc(Br)c1)c1c(O)c(C)nn(C)c1=O [Compound 234] | 0 | 0 | 0 | 0 | 10 | 40 | 30 | 70 | 10 | 0 | 0 | 0 | 10 | 30 | 80 | 90 | 10 | 30 | 10 | 30 | Kochia plant response rating (0 to 100 scale) (kochia (Bassia scoparia) [1]; [20]): 0; Foxtail, Giant plant response rating (0 to 100 scale) [2, 20]: 20; Barnyardgrass plant response rating (0 to 100 scale) [3, 20]: 0; Pigweed plant response rating (0 to 100 scale) [4, 20]: 0; Ragweed plant response rating (0 to 100 scale) [5, 20]: 40; Ryegrass, Italian plant response rating (0 to 100 scale) [6, 20]: 90; Ragweed plant response rating (0 to 100 scale) ([13]; Postemergence, 31 g ai/ha): 40; Ragweed plant response rating (0 to 100 scale) [13, 21]: 80; Wheat plant response rating (0 to 100 scale) ([14]; Postemergence, 31 g ai/ha): 0; Wheat plant response rating (0 to 100 scale) [14, 21]: 0; Ryegrass, Italian plant response rating (0 to 100 scale) ([15]; Postemergence, 31 g ai/ha): 50; Ryegrass, Italian plant response rating (0 to 100 scale) [15, 21]: 70; Plant response rating, Ducksalad (Flood) [16]: 0; Plant response rating, Sedge, Umbrella (Flood) [17]: 0; Plant response rating, Barnyardgrass (Flood) [18]: 0; Plant response rating, Rice (Flood) (rice (Oryza sativa)): 0 |
| CO/N=C(/c1c(O)c(C)nn(C)c1=O)c1cccc2cc(Cl)ccc12 [Compound 159] | 0 | 0 | 40 | 30 | 70 | 0 | 70 | 80 | 10 | 30 | 10 | 30 | 50 | 70 | 60 | 80 | 40 | 60 | 90 | 100 | Kochia plant response rating (0 to 100 scale) (kochia (Bassia scoparia) [1]; 125 g ai/ha): 20; Foxtail, Giant plant response rating (0 to 100 scale) ([2]; 125 g ai/ha): 50; Barnyardgrass plant response rating (0 to 100 scale) ([3]; 125 g ai/ha): 40; Pigweed plant response rating (0 to 100 scale) ([4]; 125 g ai/ha): 40; Ragweed plant response rating (0 to 100 scale) ([5]; 125 g ai/ha): 90; Ryegrass, Italian plant response rating (0 to 100 scale) ([6]; 125 g ai/ha): 80; Ragweed plant response rating (0 to 100 scale) ([13]; Postemergence, 31 g ai/ha): 70; Ragweed plant response rating (0 to 100 scale) [13, 21]: 90; Wheat plant response rating (0 to 100 scale) ([14]; Postemergence, 31 g ai/ha): 0; Wheat plant response rating (0 to 100 scale) [14, 21]: 10; Ryegrass, Italian plant response rating (0 to 100 scale) ([15]; Postemergence, 31 g ai/ha): 20; Ryegrass, Italian plant response rating (0 to 100 scale) [15, 21]: 80; Plant response rating, Ducksalad (Flood) [16]: 0; Plant response rating, Sedge, Umbrella (Flood) [17]: 0; Plant response rating, Barnyardgrass (Flood) [18]: 0; Plant response rating, Rice (Flood) (rice (Oryza sativa)): 0 |
